Experiments:
Type in all cases: in vivo
[1] = system: ducksalad (Heteranthera limosa); assay: Test B flooded paddy test ducksalad; conditions: Table B, Flood, scale 0 to 100
Procedure: (§1) Plant species in the flooded paddy test selected from rice (Oryza sativa), sedge, umbrella (small-flower umbrella sedge, Cyperus difformis), ducksalad (Heteranthera limosa), and barnyardgrass (Echinochloa crus-galli) were grown to the 2-leaf stage for testing. At the time of treatment, test pots were flooded to 3 cm above the soil surface, treated by application of test compounds directly to the paddy water, and then maintained at that water depth for the duration of the test. Treated plants and controls were maintained in a greenhouse for 13 to 15 d, after which time all species were compared to controls and visually evaluated. […] A dash (-) response means no test result.

rice (Oryza sativa) = assay: Test B flooded paddy test rice; conditions: Table B, Flood, scale 0 to 100
Procedure: as §1

corn (Zea mays) = assay: Test A postemergence corn; conditions: 0 to 100 scale, 0 is no effect, 100 is complete control
Description: (§2) Seeds of plant species selected from barnyardgrass (Echinochloa crus-galli), kochia (Kochia scoparia), ragweed (common ragweed, Ambrosia elatior), ryegrass, Italian (Italian ryegrass, Lolium multiflorum), crabgrass, large (large crabgrass, Digitaria sanguinalis), foxtail, giant (giant foxtail, Setaria faberii), morningglory (Ipomoea spp.), pigweed (Amaranthus retroflexus), velvetleaf (Abutilon theophrasti), wheat (Triticum aestivum), and corn (Zea mays) were planted into a blend of loam soil and sand and treated preemergence with a directed soil spray using test chemicals formulated in a non-phytotoxic solvent mixture which included a surfactant.
(§3) At the same time, plants selected from these crop and weed species and also blackgrass (Alopecurus myosuroides), and galium (catchweed bedstraw, Galium aparine) were planted in pots containing the same blend of loam soil and sand and treated with postemergence applications of test chemicals formulated in the same manner. Plants ranged in height from 2 to 10 cm and were in the one- to two-leaf stage for the postemergence treatment. Treated plants and untreated controls were maintained in a greenhouse for approximately 10 d, after which time all treated plants were compared to untreated controls and visually evaluated for injury. Plant response ratings, summarized in Table A, are based on a 0 to 100 scale where 0 is no effect and 100 is complete control. A dash (-) response means no test result.

[2] = system: ryegrass, Italian (Italian ryegrass, Lolium multiflorum); assay: Test A preemergence ryegrass, Italian; conditions: 0 to 100 scale, 0 no effect, 100 complete control
Description: as §2, §3

[3] = system: sedge, umbrella (small-flower umbrella sedge, Cyperus difformis); assay: Test B flooded paddy test sedge, umbrella; conditions: Table B, Flood, scale 0 to 100
Procedure: as §1

[4] = system: pigweed (Amaranthus retroflexus); assay: Test A postemergence pigweed; conditions: 0 to 100 scale, 0 is no effect, 100 is complete control
Description: as §2, §3

[5] = system: ryegrass, Italian (Italian ryegrass, Lolium multiflorum); assay: Test A postemergence ryegrass, Italian; conditions: 0 to 100 scale, 0 is no effect, 100 is complete control
Description: as §2, §3

[6] = system: ragweed (common ragweed, Ambrosia elatior); assay: Test A preemergence ragweed; conditions: 0 to 100 scale, 0 no effect, 100 complete control
Description: as §2, §3

[7] = system: wheat (Triticum aestivum); assay: Test A postemergence wheat; conditions: 0 to 100 scale, 0 is no effect, 100 is complete control
Description: as §2, §3

[8] = system: foxtail, giant (giant foxtail, Setaria faberii); assay: Test A preemergence foxtail, giant; conditions: 0 to 100 scale, 0 no effect, 100 complete control
Description: as §2, §3

[9] = system: barnyardgrass (Echinochloa crus-galli); assay: Test A postemergence barnyardgrass; conditions: 0 to 100 scale, 0 is no effect, 100 is complete control
Description: as §2, §3

[10] = system: galium (catchweed bedstraw, Galium aparine); assay: Test A postemergence galium; conditions: 0 to 100 scale, 0 is no effect, 100 is complete control
Description: as §2, §3

[11] = system: barnyardgrass (Echinochloa crus-galli); assay: Test A preemergence barnyardgrass; conditions: 0 to 100 scale, 0 no effect, 100 complete control
Description: as §2, §3

[12] = system: barnyardgrass (Echinochloa crus-galli); assay: Test B flooded paddy test barnyardgrass; conditions: Table B, Flood, scale 0 to 100
Procedure: as §1

[13] = system: blackgrass (Alopecurus myosuroides); assay: Test A postemergence blackgrass; conditions: 0 to 100 scale, 0 is no effect, 100 is complete control
Description: as §2, §3

kochia (Kochia scoparia) [14] = assay: Test A preemergence kochia; conditions: 0 to 100 scale, 0 no effect, 100 complete control
Description: as §2, §3

[15] = system: ragweed (common ragweed, Ambrosia elatior); assay: Test A postemergence ragweed; conditions: 0 to 100 scale, 0 is no effect, 100 is complete control
Description: as §2, §3

[16] = system: pigweed (Amaranthus retroflexus); assay: Test A preemergence pigweed; conditions: 0 to 100 scale, 0 no effect, 100 complete control
Description: as §2, §3

[17] = system: foxtail, giant (giant foxtail, Setaria faberii); assay: Test A postemergence foxtail, giant; conditions: 0 to 100 scale, 0 is no effect, 100 is complete control
Description: as §2, §3

kochia (Kochia scoparia) [18] = assay: Test A postemergence kochia; conditions: 0 to 100 scale, 0 is no effect, 100 is complete control
Description: as §2, §3

Row | Structure (SMILES) | Plant response rating, Corn (corn (Zea mays); 125 g ai/ha) | Plant response rating, Corn (corn (Zea mays); 500 g ai/ha) | Ryegrass, Italian plant response rating ([2]; 125 g ai/ha) | Ryegrass, Italian plant response rating ([2]; 500 g ai/ha) | Plant response rating, Pigweed ([4]; 125 g ai/ha) | Plant response rating, Pigweed ([4]; 500 g ai/ha) | Plant response rating, Ryegrass, Italian ([5]; 125 g ai/ha) | Plant response rating, Ryegrass, Italian ([5]; 500 g ai/ha) | Ragweed plant response rating ([6]; 125 g ai/ha) | Ragweed plant response rating ([6]; 500 g ai/ha) | Plant response rating, Wheat ([7]; 125 g ai/ha) | Plant response rating, Wheat ([7]; 500 g ai/ha) | Foxtail, Giant plant response rating ([8]; 125 g ai/ha) | Foxtail, Giant plant response rating ([8]; 500 g ai/ha) | Plant response rating, Barnyardgrass ([9]; 125 g ai/ha) | Plant response rating, Barnyardgrass ([9]; 500 g ai/ha) | Plant response rating, Galium ([10]; 125 g ai/ha) | Plant response rating, Galium ([10]; 500 g ai/ha) | Barnyardgrass plant response rating ([11]; 125 g ai/ha) | Barnyardgrass plant response rating ([11]; 500 g ai/ha) | further results
1 | O=C1NCCC(c2cccc(C(F)(F)F)c2)C1C(=O)Nc1cccc(Cl)c1Cl (racemic) [Compound 31] | 0 | 0 | 0 | 0 | 0 | 0 | 0 | 0 | 0 | 0 | 0 | 0 | 70 | 90 | 60 | 80 | 0 | 0 | 70 | 80 | Plant response rating ([1]; 500 g ai/ha): 0; Plant response rating (rice (Oryza sativa); 500 g ai/ha): 10; Plant response rating ([3]; 500 g ai/ha): 0; Plant response rating ([12]; 500 g ai/ha): 95; Plant response rating, Blackgrass ([13]; 125 g ai/ha): 20; Plant response rating, Blackgrass ([13]; 500 g ai/ha): 40; Kochia plant response rating (kochia (Kochia scoparia) [14]; 125 g ai/ha): 0; Kochia plant response rating (kochia (Kochia scoparia) [14]; 500 g ai/ha): 0; Plant response rating, Ragweed ([15]; 125 g ai/ha): 0; Plant response rating, Ragweed ([15]; 500 g ai/ha): 0; Pigweed plant response rating ([16]; 125 g ai/ha): 0; Pigweed plant response rating ([16]; 500 g ai/ha): 0; Plant response rating, Foxtail, Giant ([17]; 125 g ai/ha): 70; Plant response rating, Foxtail, Giant ([17]; 500 g ai/ha): 80; Plant response rating, Kochia (kochia (Kochia scoparia) [18]; 125 g ai/ha): 0; Plant response rating, Kochia (kochia (Kochia scoparia) [18]; 500 g ai/ha): 0
2 | CS(=O)(=O)c1ccccc1NC(=O)C1C(=O)NCCC1c1cccc(C(F)(F)F)c1 (racemic) [Compound 32] | 0 | 30 | 0 | 30 | 0 | 0 | 0 | 20 | 0 | 0 | 0 | 0 | 70 | 90 | 60 | 70 | 0 | 0 | 20 | 90 | Plant response rating ([1]; 500 g ai/ha): 40; Plant response rating (rice (Oryza sativa); 500 g ai/ha): 0; Plant response rating ([3]; 500 g ai/ha): 0; Plant response rating ([12]; 500 g ai/ha): 0; Plant response rating, Blackgrass ([13]; 125 g ai/ha): 0; Plant response rating, Blackgrass ([13]; 500 g ai/ha): 0; Kochia plant response rating (kochia (Kochia scoparia) [14]; 125 g ai/ha): 0; Kochia plant response rating (kochia (Kochia scoparia) [14]; 500 g ai/ha): 20; Plant response rating, Ragweed ([15]; 125 g ai/ha): 0; Plant response rating, Ragweed ([15]; 500 g ai/ha): 0; Pigweed plant response rating ([16]; 125 g ai/ha): 0; Pigweed plant response rating ([16]; 500 g ai/ha): 0; Plant response rating, Foxtail, Giant ([17]; 125 g ai/ha): 40; Plant response rating, Foxtail, Giant ([17]; 500 g ai/ha): 40; Plant response rating, Kochia (kochia (Kochia scoparia) [18]; 125 g ai/ha): 0; Plant response rating, Kochia (kochia (Kochia scoparia) [18]; 500 g ai/ha): 20
3 | O=C1NCCC(c2cccc(Cl)c2)C1C(=O)Nc1ccccc1C(F)(F)F (racemic) [Compound 33] | 0 | 0 | 0 | 0 | 0 | 0 | 0 | 0 | 0 | 0 | 0 | 0 | 70 | 90 | 60 | 90 | 0 | 0 | 50 | 90 | Plant response rating ([1]; 500 g ai/ha): 80; Plant response rating (rice (Oryza sativa); 500 g ai/ha): 0; Plant response rating ([3]; 500 g ai/ha): 0; Plant response rating ([12]; 500 g ai/ha): 20; Plant response rating, Blackgrass ([13]; 125 g ai/ha): 0; Plant response rating, Blackgrass ([13]; 500 g ai/ha): 0; Kochia plant response rating (kochia (Kochia scoparia) [14]; 125 g ai/ha): 0; Kochia plant response rating (kochia (Kochia scoparia) [14]; 500 g ai/ha): 30; Plant response rating, Ragweed ([15]; 125 g ai/ha): 0; Plant response rating, Ragweed ([15]; 500 g ai/ha): 0; Pigweed plant response rating ([16]; 125 g ai/ha): 0; Pigweed plant response rating ([16]; 500 g ai/ha): 0; Plant response rating, Foxtail, Giant ([17]; 125 g ai/ha): 50; Plant response rating, Foxtail, Giant ([17]; 500 g ai/ha): 90; Plant response rating, Kochia (kochia (Kochia scoparia) [18]; 125 g ai/ha): 0; Plant response rating, Kochia (kochia (Kochia scoparia) [18]; 500 g ai/ha): 0
4 | O=C1NCCC(c2cccc(Cl)c2)C1C(=O)Nc1ccccc1F (racemic) [Compound 34] | 0 | 0 | 0 | 0 | 0 | 0 | 0 | 0 | 0 | 30 | 0 | 0 | 50 | 90 | 40 | 90 | 0 | 0 | 40 | 90 | Plant response rating ([1]; 500 g ai/ha): 40; Plant response rating (rice (Oryza sativa); 500 g ai/ha): 0; Plant response rating ([3]; 500 g ai/ha): 0; Plant response rating ([12]; 500 g ai/ha): 0; Plant response rating, Blackgrass ([13]; 125 g ai/ha): 0; Plant response rating, Blackgrass ([13]; 500 g ai/ha): 0; Kochia plant response rating (kochia (Kochia scoparia) [14]; 125 g ai/ha): 0; Kochia plant response rating (kochia (Kochia scoparia) [14]; 500 g ai/ha): 30; Plant response rating, Ragweed ([15]; 125 g ai/ha): 0; Plant response rating, Ragweed ([15]; 500 g ai/ha): 0; Pigweed plant response rating ([16]; 125 g ai/ha): 0; Pigweed plant response rating ([16]; 500 g ai/ha): 30; Plant response rating, Foxtail, Giant ([17]; 125 g ai/ha): 40; Plant response rating, Foxtail, Giant ([17]; 500 g ai/ha): 80; Plant response rating, Kochia (kochia (Kochia scoparia) [18]; 125 g ai/ha): 0; Plant response rating, Kochia (kochia (Kochia scoparia) [18]; 500 g ai/ha): 0
5 | O=C1NCCC(c2cccc(OC(F)(F)F)c2)C1C(=O)Nc1ccccc1F (racemic) [Compound 37] | 0 | 0 | 0 | 0 | 0 | 0 | 0 | 20 | 0 | 0 | 0 | 0 | 70 | 90 | 60 | 80 | 0 | 0 | 40 | 70 | Plant response rating ([1]; 250 g ai/ha): 90; Plant response rating (rice (Oryza sativa); 250 g ai/ha): 0; Plant response rating ([3]; 250 g ai/ha): 0; Plant response rating ([12]; 250 g ai/ha): 35; Plant response rating, Blackgrass ([13]; 125 g ai/ha): 0; Plant response rating, Blackgrass ([13]; 500 g ai/ha): 0; Kochia plant response rating (kochia (Kochia scoparia) [14]; 125 g ai/ha): 0; Kochia plant response rating (kochia (Kochia scoparia) [14]; 500 g ai/ha): 0; Plant response rating, Ragweed ([15]; 125 g ai/ha): 0; Plant response rating, Ragweed ([15]; 500 g ai/ha): 0; Pigweed plant response rating ([16]; 125 g ai/ha): 0; Pigweed plant response rating ([16]; 500 g ai/ha): 0; Plant response rating, Foxtail, Giant ([17]; 125 g ai/ha): 20; Plant response rating, Foxtail, Giant ([17]; 500 g ai/ha): 70; Plant response rating, Kochia (kochia (Kochia scoparia) [18]; 125 g ai/ha): 0; Plant response rating, Kochia (kochia (Kochia scoparia) [18]; 500 g ai/ha): 0

Reference: patent US9944602B2, “Piperidinone herbicides” (E. I. DU PONT DE NEMOURS AND COMPANY, priority 2014, dated 2018)
